Source: US10053485B2, “Cytotoxic agents that preferentially target leukemia inhibitory factor (LIF) for the treatment of malignancies and as new contraceptive agents” (Evestra, Inc., priority 2015, dated 2018)

Key:
[1] = test system: HL-60(TB); assay: NCI-60 screen, Leukemia panel; assay type: cell-based; conditions: Homo sapiens, HL-60, 48 h
[2] = test system: HCC-2998; assay: NCI-60 screen, Colon Cancer panel; assay type: cell-based; conditions: Homo sapiens, HCC 2998, 48 h
[3] = test system: HCT-116; assay: NCI-60 screen, Colon Cancer panel; assay type: cell-based; conditions: Homo sapiens, HCT-116, 48 h
[4] = test system: SF-539; assay: NCI-60 screen, CNS Cancer panel; assay type: cell-based; conditions: Homo sapiens, SF-539, 48 h
[5] = test system: LOX IMVI; assay: NCI-60 screen, Melanoma panel; assay type: cell-based; conditions: Homo sapiens, 48 h
[6] = test system: UACC-257; assay: NCI-60 screen, Melanoma panel; assay type: cell-based; conditions: Homo sapiens, UACC-257, 48 h
[7] = test system: OVCAR-4; assay: NCI-60 screen, Ovarian Cancer panel; assay type: cell-based; conditions: Homo sapiens, OVCAR-4, 48 h
[8] = test system: OVCAR-8; assay: NCI-60 screen, Ovarian Cancer panel; assay type: cell-based; conditions: Homo sapiens, OVCAR-8, 48 h
[9] = test system: 786-0; assay: NCI-60 screen, Renal Cancer panel; assay type: cell-based; conditions: Homo sapiens, 786-0, 48 h
[10] = test system: ACHN; assay: NCI-60 screen, Renal Cancer panel; assay type: cell-based; conditions: Homo sapiens, 48 h
[11] = test system: SN12C; assay: NCI-60 screen, Renal Cancer panel; assay type: cell-based; conditions: Homo sapiens, 48 h
[12] = test system: A549 (Lung cancer); assay: Short term (72 h) cytotoxicity assay; assay type: cell-based, human; conditions: Homo sapiens; A549, 72 h cytotoxicity
[13] = test system: T47D breast cancer cells; assay: Soft agar colony formation assay; assay type: cell-based, human
Protocol: Colonies of cancer cells formed in soft agar in the presence and absence of the testing compounds is a standard assay to interpret in-vitro tumorigenic potential in the basal layer. Agar was prepared by mixing 1% DNA grade agar melted and cooled to 40° C. with an equal volume of (2×) Dulbecco's Modified Eagle's Medium (DMEM) to obtain 0.5% agar that was dispersed in a 6-well plate and allowed to solidify. A total of 0.6% agar was prepared in RPMI medium and mixed together with T47D cells (0.5×10^6 cells/mL) and immediately plated on the basal layer in the presence or absence of testing compounds. The cultures were incubated at 37° C. in a CO2 incubator for 2 weeks, and colonies were stained with 0.005% crystal violet and observed under a light microscope.

[14] = test system: human umbilical vein endothelial cells (HUVEC); assay: Matrigel in vitro HUVECs tube formation assay (angiogenesis); assay type: cell-based
Protocol: Matrigel in vitro HUVECs tube formation assay: The tube formation assay was performed using 12-well plate coated with 100 μL Matrigel basement membrane matrix (BD Bioscience) per well and polymerized at 37° C. for 30 min. Human umbilical vascular endothelial cells (HUVECs) suspended in M199 medium containing 2% FBS were plated on the Matrigel at a density of 2×10^5 cells/well. […] After 8 h, the Matrigel-induced morphological changes were photographed and the extent of capillary tube formation was evaluated by measuring the total tube length per field.

[15] = test system: human endometrial stromal cells (HESC); assay: Decidualization assay, actin cytoskeleton by phalloidin staining; assay type: cell-based; conditions: FIG. 3
Protocol: Decidualization studies: The above compounds were investigated originally for the treatment of endometriosis. The compounds were tested in a decidualization assay using human endometrial stromal fibroblast (HESC) cells. In preparation for the possibility of embryonic attachment, the stromal cells in the endometrium undergo extensive waves of proliferation, remodeling, and terminal differentiation that transforms the endometrium into an endocrine gland, called decidua. This transformation is called decidualization and it is under the control by ovarian hormones.
The level of apoptosis increases from the proliferative phase through menstrual cycle and peaks at menses. […] However if the cells are subjected to conditions that induce decidualization, stromal cells will begin to differentiate instead of undergoing apoptosis.
Briefly, human stromal endometrial cells were plated in the presence and absence of progesterone and allow undergoing decidualization. The cells treated with test compounds of different concentrations and stained for actin cytocketal morphology using phalloidin staining and monitored under fluorescent microscope.

[16] = test system: SMAD phosphorylation (TGF-beta); assay: Phosphorylation of SMAD; conditions: through blocking TGF-beta
[17] = read-out: GI50 (log10GI50) (converted)
[18] = read-out: LC50 (log10LC50) (converted)

Q: What does the source list for `C#CC(F)(F)[C@]1(O)CCC2C3CCC4=CC(=O)CCC4=C3C(c3ccc(C4CC4)cc3)C[C@@]21C` (stereo partly drawn) [EC330, 17α-(1,1-difluoro-2-propyn-1-yl)-17β-hydroxy-11β-[4-p-(cyclopropyl)phenyl]estra-4,9-dien-3-one]?
A: GI50 [1, 17]: < 0.01 µM; CC50 [1, 18]: < 0.01 µM; GI50 [2, 17]: 2.95 µM; CC50 [2, 18]: > 100 µM; GI50 [3, 17]: 2.82 µM; CC50 [3, 18]: > 100 µM; GI50 [4, 17]: < 0.01 µM; CC50 [4, 18]: 0.0525 µM; GI50 [5, 17]: < 0.01 µM; CC50 [5, 18]: < 0.01 µM; GI50 [6, 17]: 7.08 µM; CC50 [6, 18]: > 100 µM; GI50 [7, 17]: 3.89 µM; CC50 [7, 18]: > 100 µM; GI50 [8, 17]: 1.55 µM; CC50 [8, 18]: > 100 µM; GI50 [9, 17]: < 0.01 µM; CC50 [9, 18]: < 0.01 µM; GI50 [10, 17]: 1.51 µM; CC50 [10, 18]: > 100 µM; GI50 [11, 17]: 3.8 µM; CC50 [11, 18]: > 100 µM; IC50 [12]: 0.025 µM; inhibition in the number of colonies formed ([13]; 100 nM concentration, in words): complete inhibition; inhibition at 0.005 µM ([13]; Homo sapiens, T47D, 5 nM concentration, read-out: inhibition in the number of colonies formed): 50%; tube formation ([14]; 1 μM concentration, all measured time points): complete abrogation; angiogenesis in vitro (tube formation assay) ([14]; FIG. 2): inhibited; actin / alpha-smooth muscle mediated cytoskeletal disruption of fibroblast [15]: cytoskeletal disruption; phosphorylation of SMAD [16]: indirectly diminish the phosphorylation of SMAD
